Data published in ChEMBL document CHEMBL5143523, “Construction and activity evaluation of novel benzodioxane derivatives as dual-target antifungal inhibitors” (Eur J Med Chem, 2022).
Values after ≈ are worked out from the molar mass of the structure shown.

Assays:
Format in all cases: functional
Candida albicans [1] = assay: Antifungal activity against Candida albicans ATCC 10231 assessed as fungal growth inhibition measured after 72 hrs by CLSI protocol based liquid medium dilution method
Nakaseomyces glabratus = assay: Antifungal activity against Candida glabrata ATCC 0001 assessed as fungal growth inhibition measured after 72 hrs by CLSI protocol based liquid medium dilution method
Candida tropicalis = assay: Antifungal activity against Candida tropicalis ATCC 1369 assessed as fungal growth inhibition measured after 72 hrs by CLSI protocol based liquid medium dilution method
Pichia kudriavzevii = assay: Antifungal activity against Candida krusei ATCC 6258 assessed as fungal growth inhibition measured after 72 hrs by CLSI protocol based liquid medium dilution method
Aspergillus fumigatus = assay: Antifungal activity against Aspergillus fumigatus KM8001 assessed as fungal growth inhibition measured after 72 hrs by CLSI protocol based liquid medium dilution method
Candida albicans [2] = assay: Antifungal activity against Candida albicans assessed as fungal growth inhibition measured after 72 hrs by CLSI protocol based liquid medium dilution method

Row | Structure (SMILES) | MIC50 (Candida albicans [1]) | MIC50 (Nakaseomyces glabratus) | MIC50 (Candida tropicalis) | MIC50 (Pichia kudriavzevii) | MIC50 (Aspergillus fumigatus) | MIC50 (Candida albicans [2])
1 | CC(C)[C@H](NC(=O)c1ccc2c(c1)OCCO2)C(=O)N[C@@H](Cn1cncn1)c1ccccc1 | 0.25 µg/mL (≈ 0.556 µM) | 0.5 µg/mL (≈ 1.11 µM) | 0.25 µg/mL (≈ 0.556 µM) | 0.25 µg/mL (≈ 0.556 µM) | > 8 µg/mL | 
2 | O=C(N[C@@H](Cn1cncn1)c1ccccc1)c1ccc2c(c1)OCCO2 | 0.125 µg/mL (≈ 0.357 µM) | 0.125 µg/mL (≈ 0.357 µM) | 0.5 µg/mL (≈ 1.43 µM) | 0.5 µg/mL (≈ 1.43 µM) | > 8 µg/mL | 
3 | O=C(NCCc1ccccc1)c1cccc2c1OCCO2 |  |  |  |  |  | 8 µg/mL (≈ 28.2 µM)
4 | CCC(C)[C@H](NC(=O)c1cccc2c1OCCO2)C(=O)Nc1ccncc1 (stereo partly drawn) | 1 µg/mL (≈ 2.71 µM) | 2 µg/mL (≈ 5.41 µM) | 0.5 µg/mL (≈ 1.35 µM) | 0.5 µg/mL (≈ 1.35 µM) | 4 µg/mL (≈ 10.8 µM) | 
5 | CCC(C)[C@H](NC(=O)c1cccc2c1OCCO2)C(=O)N[C@@H](Cn1cncn1)c1ccccc1 (stereo partly drawn) | 0.125 µg/mL (≈ 0.27 µM) | 0.5 µg/mL (≈ 1.08 µM) | 0.25 µg/mL (≈ 0.539 µM) | 0.25 µg/mL (≈ 0.539 µM) | 4 µg/mL (≈ 8.63 µM) | 
6 | CCC(C)[C@H](NC(=O)c1ccc2c(c1)OCCO2)C(=O)N[C@@H](Cn1cncn1)c1ccccc1 (stereo partly drawn) | 0.25 µg/mL (≈ 0.539 µM) | 0.5 µg/mL (≈ 1.08 µM) | 0.25 µg/mL (≈ 0.539 µM) | 0.25 µg/mL (≈ 0.539 µM) | 4 µg/mL (≈ 8.63 µM) | 
7 | CCC(C)[C@H](NC(=O)c1ccc2c(c1)OCCO2)C(=O)Nc1ccncc1 (stereo partly drawn) | 0.5 µg/mL (≈ 1.35 µM) | 2 µg/mL (≈ 5.41 µM) | 0.5 µg/mL (≈ 1.35 µM) | 1 µg/mL (≈ 2.71 µM) | > 8 µg/mL | 
8 | O=C(N[C@H](Cc1ccccc1)Cn1ccnc1)c1ccc2c(c1)OCCO2 | 0.5 µg/mL (≈ 1.38 µM) | 0.25 µg/mL (≈ 0.688 µM) | 0.5 µg/mL (≈ 1.38 µM) | 0.5 µg/mL (≈ 1.38 µM) | 4 µg/mL (≈ 11 µM) | 
9 | CCOC(=O)[C@@H](NC(=O)c1cccc2c1OCCO2)C(C)C |  |  |  |  |  | 16 µg/mL (≈ 52.1 µM)
10 | O=C(N[C@@H](Cn1ccnc1)c1ccccc1)c1ccc2c(c1)OCCO2 | 0.25 µg/mL (≈ 0.716 µM) | 0.25 µg/mL (≈ 0.716 µM) | 0.25 µg/mL (≈ 0.716 µM) | 0.5 µg/mL (≈ 1.43 µM) | > 8 µg/mL | 
11 | O=C(N[C@H](Cc1ccccc1)Cn1cncn1)c1cccc2c1OCCO2 | 0.25 µg/mL (≈ 0.686 µM) | 0.5 µg/mL (≈ 1.37 µM) | 0.25 µg/mL (≈ 0.686 µM) | 0.5 µg/mL (≈ 1.37 µM) | 4 µg/mL (≈ 11 µM) | 
12 | CC(C)[C@H](NC(=O)c1cccc2c1OCCO2)C(=O)N[C@@H](Cn1ccnc1)c1ccccc1 | 0.25 µg/mL (≈ 0.557 µM) | 0.5 µg/mL (≈ 1.11 µM) | 0.5 µg/mL (≈ 1.11 µM) | 0.25 µg/mL (≈ 0.557 µM) | > 8 µg/mL | 0.25 µg/mL (≈ 0.557 µM)
